Assay results reported in patent publication US4880789A, “2'-Substituted-4-deoxy-thiazolo(5,4-c)-rifamycin SV derivatives” (Gruppo Lepetit S.P.A., priority 1985, dated 1989).
Values after ≈ are worked out from the molar mass of the structure shown. Read-outs that look alike come from different tables or passages of the source.

What was measured:
S. faecalis ATCC 7080 = test: MIC, two-fold dilution microtiter, S. faecalis ATCC 7080; assay type: cell-based; settings: Enterococcus faecalis, ATCC7080, 18-24 h, 37° C, read-out: MIC
S. aureus TOUR L 1282 = test: MIC, two-fold dilution microtiter, rifampicin resistant S. aureus TOUR L 1282; assay type: cell-based; settings: Staphylococcus aureus, TOURL1282, rifampicin resistant strain
[1] = system: Staphylococcus aureus ATCC 6538; test: MIC, two-fold dilution microtiter, S. aureus ATCC 6538; assay type: cell-based; settings: Staphylococcus aureus, ATCC6538; S. aureus ATCC 6538; Iso-Sensitest broth; 18-24 h, 37° C; read-out: MIC
[2] = system: Proteus vulgaris XI9H ATCC 881; test: MIC, two-fold dilution microtiter, P. vulgaris; assay type: cell-based; settings: Proteus vulgaris, ATCC881
[3] = system: Pseudomonas aeruginosa ATCC 10145; test: MIC, two-fold dilution microtiter, P. aeruginosa ATCC 10145; assay type: cell-based; settings: Pseudomonas aeruginosa, ATCC10145
[4] = system: Streptococcus pyogenes C203; test: MIC, two-fold dilution microtiter, S. pyogenes C203; assay type: cell-based; settings: Streptococcus pyogenes, Todd-Hewitt broth, 18-24 h, 37° C, read-out: MIC
Description: (§1) The minimum inhibitory concentration (MIC) of representative compounds of the invention was determined using two-fold dilution method in microtiter system. The media used were: Todd-Hewitt broth (Difco) for steptococci; Iso-Sensitest broth (Oxoid) for staphylococci and gram-negative bacteria. The final inoculum was about 10^4 cfμ/ml. […] For M. tuberculosis H37 RV the inoculum consisted of 0.5-1% of a 7-9 day culture in Dubos medium. The tests were carried out in Kirschner medium supplemented with 10% horse serum. Observations were made after 7-days incubation at 37° C.

[5] = system: Mycobacterium tuberculosis H37RV ATCC 9360; test: MIC, M. tuberculosis H37RV, Kirschner medium; assay type: cell-based; settings: Mycobacterium tuberculosis, 168 h, 10% horse serum, 7 days, 37° C, read-out: MIC
Description: as §1

[6] = system: Klebsiella pneumoniae ISM; test: MIC, two-fold dilution microtiter, K. pneumoniae ISM; assay type: cell-based; settings: Klebsiella pneumoniae
S. aureus tour L 165 [7] = test: experimental septicemia in mice (S. aureus); assay type: in vivo; settings: Staphylococcus aureus, once daily for three days, survival on 10th day
Description: The antimicrobial activity of the compounds of the invention is also confirmed in "in vivo" tests. The animals (groups of five mice) were infected by intraperitoneal injection of 16-hour broth culture of S. aureus tour L 165. Inocula were adjusted so that untreated animals died of septicemia within 48 hours. Animals were treated once daily for three days starting immediately after infection. On the 10th day the value for the ED50 in mg/kg/day was calculated by the method of […]-KARBER (Finney, D. J., Statistical method in biological assay, page 524. C. Griffin Ltd., London, 1952), on the basis of the percentage of surviving animals at each dose.

[8] = system: Escherichia coli SKF 12140; test: MIC, two-fold dilution microtiter, E. coli SKF 12140; assay type: cell-based; settings: Escherichia coli, SKF12140, Iso-Sensitest broth, 18-24 h, 37° C, read-out: MIC
S. pneumoniae UC 41 = test: MIC, two-fold dilution microtiter, S. pneumoniae UC 41; assay type: cell-based; settings: Streptococcus pneumoniae, UC41, Todd-Hewitt broth, 18-24 h, 37° C, read-out: MIC
S. aureus TOUR L 165 [9] = test: MIC, two-fold dilution microtiter, S. aureus TOUR L 165; assay type: cell-based, Staphylococcus aureus; settings: Staphylococcus aureus, TOURL165, S. aureus TOUR L 165, read-out: MIC
[10] = Iso-Sensitest broth, 18-24 h, 37° C
[11] = supplemented with 30% bovine serum

COC1C=COC2(C)Oc3c(C)c(O)c4c(O)c(c5sc(N6CCN(c7ccc(Cl)cc7)CC6)nc5c4c3C2=O)NC(=O)C(C)=CC=CC(C)C(O)C(C)C(O)C(C)C(OC(C)=O)C1C (stereo not shown) [Example 3d, 2'-[4"(4'"-chlorophenyl)-1-piperazinyl]rifamycin P]
MIC (S. faecalis ATCC 7080): 2 µg/mL (≈ 2.14 µM)
MIC (S. aureus TOUR L 1282): > 128 µg/mL
MIC [1]: 0.064 µg/mL (≈ 0.0686 µM)
MIC [2]: > 128 µg/mL
MIC [3]: 128 µg/mL (≈ 137 µM)
MIC [4]: 0.064 µg/mL (≈ 0.0686 µM)
MIC [5]: 1 µg/mL (≈ 1.07 µM)
MIC [6]: > 128 µg/mL
ED50 (S. aureus tour L 165 [7]; TOURL165, 240 h, sc): 3.3 mg/kg
ED50 (S. aureus tour L 165 [7]; TOURL165, po, 240 h, os): 3.3 mg/kg
MIC [8]: 1 µg/mL (≈ 1.07 µM)
MIC (S. pneumoniae UC 41): 0.125 µg/mL (≈ 0.134 µM)
MIC (S. aureus TOUR L 165 [9]; [10]): 0.064 µg/mL (≈ 0.0686 µM)
MIC (S. aureus TOUR L 165 [9]; [11]): 0.25 µg/mL (≈ 0.268 µM)

COc1ccc(N2CCN(c3nc4c(s3)c3c(O)c5c(O)c(C)c6c(c54)C(=O)C(C)(OC=CC(OC)C(C)C(OC(C)=O)C(C)C(O)C(C)C(O)C(C)C=CC=C(C)C(=O)N3)O6)CC2)cc1 (stereo not shown) [Example 3e, 2'-[4"(4'"-methoxyphenyl)-1-piperazinyl]rifamycin P]
MIC (S. faecalis ATCC 7080): 4 µg/mL (≈ 4.31 µM)
MIC (S. aureus TOUR L 1282): > 128 µg/mL
MIC [1]: 0.064 µg/mL (≈ 0.0689 µM)
MIC ([2]; P. vulgaris XI9H ATCC 881, Iso-Sensitest broth, 18-24 h, 37° C, read-out: MIC): 64 µg/mL (≈ 68.9 µM)
MIC ([3]; P. aeruginosa ATCC 10145, Iso-Sensitest broth, 18-24 h, 37° C, read-out: MIC): 8 µg/mL (≈ 8.61 µM)
MIC [4]: 0.125 µg/mL (≈ 0.135 µM)
MIC [5]: 0.25 µg/mL (≈ 0.269 µM)
MIC [6]: > 128 µg/mL
ED50 (S. aureus tour L 165 [7]; TOURL165, 240 h, sc): 0.63 mg/kg
ED50 (S. aureus tour L 165 [7]; TOURL165, po, 240 h, os): 1.9 mg/kg
MIC [8]: 8 µg/mL (≈ 8.61 µM)
MIC (S. pneumoniae UC 41): 0.064 µg/mL (≈ 0.0689 µM)
MIC (S. aureus TOUR L 165 [9]; [10]): 0.064 µg/mL (≈ 0.0689 µM)
MIC (S. aureus TOUR L 165 [9]; [11]): 0.5 µg/mL (≈ 0.538 µM)
